Results reported in paper PMC7413254 (Nature Communications, 2020).

Columns and labels:
Format in all cases: cell-based
PfCRT^Dd2 [1] = biological target: T1, PfCRT^Dd2 (Plasmodium falciparum, UniProt Q9N623, A220S/I356T/K76T/M74I/N326S/N75E/Q271E/R371I); test: [3H]CQ uptake into Xenopus oocytes, cis-inhibition by unlabelled solute; settings: PfCRTDd2 oocytes, background [3H]CQ accumulation subtracted, normalised to oocyte type control
How it was run: (§1)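 Using pH 5.5 ND96 at 27.5 °C, uptake is followed for 1.5 h, stopped with ice-cold buffer, and quantified as accumulated radioactivity per oocyte after SDS lysis.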

PfCRT^Ecu1110 [2] = biological target: T2, PfCRT^Ecu1110 (Plasmodium falciparum, UniProt Q9N623, A220S/I356L/K76T/N326D); test: as above; settings: for PfCRT-mediated [3H]CQ transport, cis-inhibition (% PfCRTEcu1110 control): PfCRTEcu1110 oocytes, background [3H]CQ accumulation subtracted, normalised to oocyte type control; for [3H]CQ transport (% PfCRTEcu1110 control), cis-inhibition, PfCRTEcu1110: PfCRT-mediated component (background subtracted), sheet title says normalised to PfCRTDd2 control, mean ± SEM, SEM
T2 sequence (Q9N623 whole entry A220S/I356L/K76T/N326D): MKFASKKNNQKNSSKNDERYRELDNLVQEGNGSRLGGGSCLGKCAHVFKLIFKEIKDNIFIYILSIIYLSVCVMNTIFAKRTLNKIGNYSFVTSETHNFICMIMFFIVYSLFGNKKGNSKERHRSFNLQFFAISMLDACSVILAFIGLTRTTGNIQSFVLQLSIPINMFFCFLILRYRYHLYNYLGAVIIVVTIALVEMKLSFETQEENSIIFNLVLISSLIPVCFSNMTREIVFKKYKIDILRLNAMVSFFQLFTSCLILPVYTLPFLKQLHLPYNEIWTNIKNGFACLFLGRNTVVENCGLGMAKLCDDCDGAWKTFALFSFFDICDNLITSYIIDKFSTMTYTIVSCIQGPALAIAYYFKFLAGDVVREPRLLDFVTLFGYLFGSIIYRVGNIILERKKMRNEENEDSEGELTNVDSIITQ
How it was run: as §1

PfCRT^3D7 = PfCRT^3D7 (Plasmodium falciparum, UniProt Q8IBZ9); test: cell-based; settings: for PfCRT-mediated [3H]CQ transport, trans-stimulation (% PfCRT3D7 control): PfCRT3D7 oocytes, normalised to oocyte type control
Chain of PfCRT^3D7 (Q8IBZ9 59-398): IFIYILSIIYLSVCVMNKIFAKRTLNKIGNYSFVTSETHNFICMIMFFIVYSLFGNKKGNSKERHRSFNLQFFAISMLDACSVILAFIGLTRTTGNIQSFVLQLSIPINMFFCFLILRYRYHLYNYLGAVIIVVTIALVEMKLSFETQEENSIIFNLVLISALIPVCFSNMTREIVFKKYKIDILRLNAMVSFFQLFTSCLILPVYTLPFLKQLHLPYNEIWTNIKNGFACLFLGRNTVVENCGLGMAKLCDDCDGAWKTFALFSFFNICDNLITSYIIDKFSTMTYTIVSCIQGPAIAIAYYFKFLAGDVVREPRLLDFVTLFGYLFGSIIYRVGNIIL
How it was run: (§2)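 Oocytes (ten per treatment, ≥4 independent frogs/days) were preloaded by injecting VF-6 in 25 nL ND96 at pH 5.0, 5.5, 6.0 or 7.0, or Na^+-free choline buffer, then uptake run 1.5 h, 27.5 °C, ND96 pH 5.5 by default. Internal concentrations assumed ~400 nL oocyte volume.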

PfCRT^Dd2 [3] = biological target: T1, PfCRT^Dd2; test: cell-based; settings: for PfCRT-mediated [3H]CQ transport, trans-stimulation (% PfCRTDd2 control): PfCRTDd2 oocytes, normalised to oocyte type control; for [3H]CQ transport (% PfCRTDd2 control), trans-stimulation, PfCRTDd2: PfCRT-mediated component (background subtracted), mean ± SEM, SEM
How it was run: as §2

PfCRT^Ecu1110 [4] = biological target: T2, PfCRT^Ecu1110; test: cell-based; settings: for PfCRT-mediated [3H]CQ transport, trans-stimulation (% PfCRTEcu1110 control): PfCRTEcu1110 oocytes, normalised to oocyte type control; for [3H]CQ transport (% PfCRTDd2 control), trans-stimulation, PfCRTEcu1110: PfCRT-mediated component (background subtracted), sheet title says normalised to PfCRTDd2 control, mean ± SEM, SEM
How it was run: as §2

[5] = [test solute]i = 5 mM (intracellular)
[6] = [test solute]i = 45 mM (intracellular; 30 mM for some solutes due to solubility)
[7] = [test solute]i = 5 mM (injected)
[8] = [test solute]i = 45 mM (30 mM for some solutes due to solubility)

T1 sequence (Q9N623 whole entry A220S/I356T/K76T/M74I/N326S/N75E/Q271E/R371I): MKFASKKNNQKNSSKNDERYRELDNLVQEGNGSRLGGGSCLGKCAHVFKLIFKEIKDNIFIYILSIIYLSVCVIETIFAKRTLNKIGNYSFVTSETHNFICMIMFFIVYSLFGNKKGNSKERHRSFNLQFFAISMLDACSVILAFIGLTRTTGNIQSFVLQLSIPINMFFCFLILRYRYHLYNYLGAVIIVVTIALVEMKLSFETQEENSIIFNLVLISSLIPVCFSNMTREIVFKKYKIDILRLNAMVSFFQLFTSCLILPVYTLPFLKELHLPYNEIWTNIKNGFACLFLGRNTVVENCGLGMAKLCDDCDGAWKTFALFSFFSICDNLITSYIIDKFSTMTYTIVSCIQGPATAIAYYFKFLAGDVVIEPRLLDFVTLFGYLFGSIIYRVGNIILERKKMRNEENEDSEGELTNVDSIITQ

Substance | PfCRT-mediated [3H]CQ transport, cis-inhibition (% PfCRTDd2 control) (PfCRT^Dd2 [1]; [test solute] = 0.5 mM) | PfCRT-mediated [3H]CQ transport, cis-inhibition (% PfCRTDd2 control) (PfCRT^Dd2 [1]; [test solute] = 1 mM) | PfCRT-mediated [3H]CQ transport, cis-inhibition (% PfCRTDd2 control) (PfCRT^Dd2 [1]; [test solute] = 2 mM) | PfCRT-mediated [3H]CQ transport, cis-inhibition (% PfCRTEcu1110 control) (PfCRT^Ecu1110 [2]; [test solute] = 0.5 mM) | PfCRT-mediated [3H]CQ transport, cis-inhibition (% PfCRTEcu1110 control) (PfCRT^Ecu1110 [2]; [test solute] = 1 mM) | PfCRT-mediated [3H]CQ transport, cis-inhibition (% PfCRTEcu1110 control) (PfCRT^Ecu1110 [2]; [test solute] = 2 mM) | [3H]CQ transport (% PfCRTEcu1110 control), cis-inhibition, PfCRTEcu1110 (PfCRT^Ecu1110 [2]; [test solute] = 0.5 mM) [% PfCRTEcu1110 control] | [3H]CQ transport (% PfCRTEcu1110 control), cis-inhibition, PfCRTEcu1110 (PfCRT^Ecu1110 [2]; [test solute] = 1 mM) [% PfCRTEcu1110 control] | [3H]CQ transport (% PfCRTEcu1110 control), cis-inhibition, PfCRTEcu1110 (PfCRT^Ecu1110 [2]; [test solute] = 2 mM) [% PfCRTEcu1110 control] | PfCRT-mediated [3H]CQ transport, trans-stimulation (% PfCRT3D7 control) (PfCRT^3D7; [5]) | PfCRT-mediated [3H]CQ transport, trans-stimulation (% PfCRT3D7 control) (PfCRT^3D7; [6]) | PfCRT-mediated [3H]CQ transport, trans-stimulation (% PfCRTDd2 control) (PfCRT^Dd2 [3]; [5]) | PfCRT-mediated [3H]CQ transport, trans-stimulation (% PfCRTDd2 control) (PfCRT^Dd2 [3]; [6]) | [3H]CQ transport (% PfCRTDd2 control), trans-stimulation, PfCRTDd2 (PfCRT^Dd2 [3]; [7]) [% PfCRTDd2 control] | [3H]CQ transport (% PfCRTDd2 control), trans-stimulation, PfCRTDd2 (PfCRT^Dd2 [3]; [8]) [% PfCRTDd2 control] | PfCRT-mediated [3H]CQ transport, trans-stimulation (% PfCRTEcu1110 control) (PfCRT^Ecu1110 [4]; [5]) | PfCRT-mediated [3H]CQ transport, trans-stimulation (% PfCRTEcu1110 control) (PfCRT^Ecu1110 [4]; [6]) | [3H]CQ transport (% PfCRTDd2 control), trans-stimulation, PfCRTEcu1110 (PfCRT^Ecu1110 [4]; [7]) [% PfCRTEcu1110 control] | [3H]CQ transport (% PfCRTDd2 control), trans-stimulation, PfCRTEcu1110 (PfCRT^Ecu1110 [4]; [8]) [% PfCRTEcu1110 control] | [3H]CQ transport (% PfCRT3D7 control), trans-stimulation, PfCRT3D7 (PfCRT^3D7; SEM)
DLDDALDK [DK-8] | 44 ± 3.7 | 32 ± 1.5 | 24 ± 0.8 | 49 ± 1.4 | 39 ± 2.1 | 30 ± 0.8 | 15 ± 0.6 | 13 ± 0.1 | 9.0 ± 0.05 | 96 ± 3.3 | 96 ± 3.4 | 98 ± 3.3 | 95 ± 4.1 | 98 ± 3.3 | 95 ± 4.1 | 95 ± 4.9 | 97 ± 2.9 | 29 ± 1.5 | 29 ± 1.1 | –
LSFPTTK [LK-7] | 48 ± 2.6 | 37 ± 1.7 | 18 ± 0.7 | 47 ± 1.1 | 33 ± 2.4 | 17 ± 0.4 | 15 ± 0.1 | 10 ± 0.4 | 5.0 ± 0.05 | 93 ± 3.2 | 94 ± 3.6 | 98 ± 4.3 | 95 ± 3.3 | 98 ± 4.3 | 95 ± 3.3 | 97 ± 3.3 | 93 ± 3.7 | 29 ± 1.6 | 29 ± 1.8 | 0.1 ± 0.01
DLPVG [DG-5] | 29 ± 0.6 | 22 ± 1.3 | 11 ± 0.1 | 46 ± 1.8 | 33 ± 2.7 | – | 14 ± 0.5 | 10 ± 0.6 | 5.0 ± 0.05 | 128 ± 2.2 | 146 ± 3.2 | 98 ± 1.0 | 113 ± 1.1 | 98 ± 1.0 | 113 ± 1.1 | 115 ± 1.5 | 118 ± 1.1 | 35 ± 1.5 | 36 ± 1.3 | –
FSDGLA [FA-6] | 29 ± 0.1 | 17 ± 0.7 | 10 ± 0.3 | 60 ± 0.7 | 42 ± 2.5 | 32 ± 0.5 | 19 ± 0.1 | – | 10 ± 0.3 | 134 ± 3.2 | 190 ± 4.6 | 102 ± 6.2 | 98 ± 4.2 | 102 ± 6.2 | 98 ± 4.2 | 98 ± 4.5 | 96 ± 4.7 | 30 ± 1.4 | 29 ± 1.3 | –
YPWTQ [YQ-5] | 67 ± 2.2 | 51 ± 3.2 | 27 ± 1.1 | 72 ± 6.9 | 61 ± 1.4 | 49 ± 2.5 | 23 ± 0.4 | 19 ± 0.3 | 15 ± 0.5 | 96 ± 3.5 | 97 ± 3.7 | 97 ± 4.6 | 96 ± 2.7 | 97 ± 4.6 | 96 ± 2.7 | 99 ± 3.5 | 98 ± 2.2 | 30 ± 1.0 | 30 ± 1.3 | –
